Laboratory results: ChEMBL document CHEMBL1157217, “Terpenoid indole alkaloids from Winchia calophylla” (J Nat Prod, 2006)
pIC50: −log10 of the molar value.

Test system: A549
Assay: Cytotoxicity against human A549 cells by SRB assay
Format: functional, cell-based

In the case of COC(=O)C1=C2Nc3c(OC)cccc3[C@@]23CCN2C[C@@H]([C@H](C)O)[C@@H]1C[C@H]23, the pIC50 was 4.94.

C/C=C1/CN2CC[C@]34C(=C(C(=O)OC)[C@H]1C[C@H]23)Nc1ccccc14 [AKUAMMICINE] gave a pIC50 of 4.82.
